“Also recorded” adds a separate entry of the source. Like-named read-outs stand apart in the source and are kept apart here.
Legend:
20S proteasome [1] = assay: Ex vivo 20S proteasome activity in primate white blood cells, twice weekly intravenous dosing for 4 weeks; design: species or system Cynomolgus monkeys
Method: Male and female Cynomolgus monkeys (2.2 to 3.5 kg) were assigned to four groups (5/sex/group). Each group received 0 (vehicle control), 0.045, 0.067 or 0.100 mg/kg/dose of 1 as a single intravenous injection in a dose volume of 0.3 mL/kg twice weekly for 4 weeks (days 1, 5, 8, 12, 15, 19, 22 and 26). […] Three males from the control, low- and mid-dose groups, two high-dose males, and three females/group were sacrificed at the end of treatment on Day 27. Two animals/sex/group were designated as recovery animals and received treatment for 4 weeks followed by 2 weeks of recovery; they were sacrificed on Day 41.
Blood was collected for 20S proteasome activity determination prior to treatment, at 1.0 h after dosing on Days 1, 8, 15 and 22, and at 1.0 h prior to dosing on Days 5, 12, 19 and 26; and on Days 31, 34, 38, and 41 (recovery sacrifice animals).

20S proteasome [2] = assay: Ratio of chymotryptic to tryptic activity, titration of inhibitor in human samples; assay type: biochemical
Method: The percent inhibition (%I) is then calculated according to the following equation: [formula]
μt=activation factor determined upon titration of the proteasome inhibitor. For the proteasome inhibitor 1, βt=1.28 in human samples.
Complete activation of the 20S roteasome is achieved within 10 minutes.
βt=activation factor determined upon titration of the proteasome inhibitor. For the proteasome inhibitor 1, βt=1.28 in human samples.

[3] = tested on: purified 20S proteasome from rabbit reticulocytes (tryptic activity); assay: Tryptic activity of purified 20S proteasome (Rs substrate, fluorometry)
Method: The assay is based upon the SDS-inducible chymotrypsin-like and trypsin-like activities of free 20S proteasome particles. It uses fluorometry to measure the rate at which the 20S proteasome hydrolyzes an amide bond in a small peptide substrate.
The Rs substrate is dissolved to 10 mM in DMSO. The Rs substrate buffer, containing 20 mM HEPES, 0.5 mM EDTA, 0.6% DMSO, and 60 μM Rs substrate, is prepared.
20 μL of a test sample is added to a cuvette containing 2 mL of Rs substrate buffer at 37° C., and the reaction is allowed to run for 10 minutes. Complete activation of the 20S proteasome is achieved within 10 minutes. Consistent results are obtained for readings taken after 4 minutes and up to 10 minutes. The maximum linear slope for at least 1 minute of data is measured. If the rate is less than 1 pmol AMC/sec, the measurement is repeated using 20 μL of the test sample in 800 μL Rs buffer.
(§5) Chymotryptic and tryptic assays were performed as described in Examples 3 and 5 at increasing concentrations of the proteasome inhibitor 1.
Chymotryptic and tryptic assays were performed as described in Examples 3 and 5 at increasing concentrations of the proteasome inhibitor 1. The data was fitted to vc/vt=kc/kt*(1−f)/(1−f+βt*f), where kc/kt=2.88±0.03, βt=1.38±0.05, and %I=f*100 (FIG. 12).

20S proteasome [4] = biological target: T1, 20S proteasome (Rattus norvegicus, UniProt P28075)
T1 sequence (P28075 60-263): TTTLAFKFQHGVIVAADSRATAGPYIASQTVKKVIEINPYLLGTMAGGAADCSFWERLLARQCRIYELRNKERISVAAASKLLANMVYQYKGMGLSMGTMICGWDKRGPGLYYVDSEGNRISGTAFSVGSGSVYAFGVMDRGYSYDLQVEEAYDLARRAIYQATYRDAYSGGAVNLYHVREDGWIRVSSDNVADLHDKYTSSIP
Method: In two studies, female Wistar rats (150 to 200 g) were administered a single intravenous dose of 1 (0.03, 0.1 and 0.3 mg/kg in a dose volume of 1.0 mL/kg). […] Tissue samples were collected from liver and brain at 1.0, 24 and 48 h following administration for evaluation of 20S proteasome activity.

[5] = tested on: 20S proteasome in rat white blood cell lysates; assay: Ratio of chymotryptic to tryptic activity in rat white blood cell lysates; assay type: biochemical; conditions: fit of vc/vt
Description: Data was fitted as in Example 10, to give kc/kt=17.6± and βt=1.1±0.2 (FIG. 13).

20S proteasome [6] = assay: Ex vivo 20S proteasome activity in peripheral white blood cells of rats after single intravenous administration; design: species or system female Wistar rats
Method: (§1) The amount of 20S proteasome activity in the test sample is calculated according to the following formula: [formula]
(§2) Dose formulations of 1 were prepared daily during the course of the study. Dilutions were prepared from a stock solution. The stock solution of 1 was made up in 98% saline (0.9%), 2% ethanol with 0.1% ascorbic acid. Dilutions of the stock were made in the same vehicle.
(§3) Drugs were administered in vehicle intravenously (IV) using a dose volume of 100 μL per mouse or 1.0 mL/kg in rats. Control groups were administered with the vehicle (98% saline [0.9%], 2% ethanol, 0.1% ascorbic acid). Animals were dosed with 1 as a single IV bolus given either once or on multiple occasions.
(§4) Following IV dosing with 1, blood was withdrawn at various time points and peripheral white blood cells were isolated.
Blood samples were collected at 1.0, 24 and 48 h following administration of 1.

20S proteasome [7] = biological target: T1, 20S proteasome; assay: Ex vivo 20S proteasome activity in rat blood and tissues 1.0 h after intravenous administration (third study); design: from tissue; host or cells: rat liver and brain (Wistar); blood, brain, colon, liver, muscle, prostate, testes (Sprague-Dawley); species or system male Sprague-Dawley rats
Method: Blood and tissue samples were collected 1.0 h following administration for evaluation of 20S proteasome activity. The tissues collected were brain, colon, liver, muscle (gastrocnemius), prostate and testes.

20S proteasome [8] = assay: Ex vivo 20S proteasome activity in peripheral white blood cells of mice after single intravenous administration; design: species or system female CD2-F1 mice and female BALB/c mice
Method: as §1, §2, §3, §4
The vehicle was […] [0.9%], 2% ethanol, 0.1% ascorbic acid. Blood samples were collected at 1.0 and 24 h following administration. Due to the blood volume required in the 20S proteasome activity assay, groups of five mice were sacrificed at the same time and their blood pooled to generate single data points.

[9] = tested on: purified 20S proteasome from rabbit reticulocytes (chymotryptic activity); assay: Chymotryptic activity of purified 20S proteasome (Ys substrate, fluorometry)
Method: The assay is based upon the SDS-inducible chymotrypsin-like activity of free 20S particles. It uses fluorometry to measure the rate at which the 20S proteasome hydrolyzes an amide bond in a small peptide substrate. Measurement of this rate in the absence and in the presence of an inhibitor allows a determination of how enzyme is bound by inhibitor.
The Ys substrate is dissolved to 6 mM in DMSO. A 2% (2 g/100 mL) solution of SDS in MilliQ water is prepared in a glass bottle. The Ys substrate buffer, containing 20 mM HEPES, 0.5 mM EDTA, 0.035% SDS, 1% DMSO, and 60 μM Ys substrate, is prepared. The final pH of the Ys buffer is 8.0.
10 μL of a test sample is added to a cuvette containing 2 mL of Ys substrate buffer at 37° C., and the reaction is allowed to run for 10 minutes. Complete activation of the 20S proteasome is achieved within 10 minutes. Consistent results are obtained for readings taken after 4 minutes and up to 10 minutes. The maximum linear slope for at least 1 minute of data is measured. If the rate is less than 1 pmol AMC/sec, the measurement is repeated using 20 μL of the test sample.
as §5

[10] = design: species or system Sprague-Dawley rats; conditions: rat, in vivo, iv
Method: A single dose intravenous pharmacokinetics study with N-(pyrazine) carbonyl-L-phenylalanine-L-leucine boronic acid (1) was conducted in Sprague-Dawley rats (140 to 280 g). Animals were assigned to 3 groups (6/sex in Groups 1 and 2; 9/sex in Group 3). Animals in groups 1, 2, and 3 received 0.03, 0.1 or 0.3 mg/kg of 1, respectively, in the same dose volume.
Blood samples (approximately 1.0 mL) were collected from the jugular vein of animals pre-dose and at approximately 10 and 30 min and 1, 3 and 24 h post-dose on Day 1.

20S proteasome [11] = assay: Ex vivo 20S proteasome activity in peripheral white blood cells of rats after repeat intravenous administration
Method: as §1, §3
In an additional repeat dose study, male Sprague-Dawley rats (250 to 450 g; n=6 per group) were treated with twice weekly intravenous doses of 1 (0.01 to 0.35 mg/kg/day in a dose volume of 1.0 mL/kg) for two weeks. […] Blood samples were collected 1.0 h after the last dose for evaluation of 20S proteasome activity.

[12] = inferred from absence of 20S proteasome inhibition
[13] = 1.0 h after single IV 0.1 and 0.3 mg/kg
[14] = alternate daily IV for 14 days, 24 h after last dose
[15] = daily IV for 7 days, 24 h after last dose
[16] = once weekly IV for 8 weeks, 24 h after last dose

Question: For `CC(C)C[C@H](NC(=O)[C@H](Cc1ccccc1)NC(=O)c1cnccn1)B(O)O` [compound 1, N-(pyrazine)carbonyl-L-phenylalanine-L-leucine boronic acid], which “clinical condition of high-dose male” value (20S proteasome [1]; 0.100 mg/kg/dose IV twice weekly, Day 26 after receiving 8 doses) is on record?
Answer: Its value is “sacrificed in moribund condition”.

Question: What about the “white blood cell 20S proteasome activity” value (20S proteasome [1]; 1.0 h after dosing, 0.045, 0.067 or 0.100 mg/kg/dose IV twice weekly) of the same compound?
Answer: The value was “significant and dose-related decrease”.

Question: And the “white blood cell 20S proteasome activity” value (20S proteasome [1]; 72 hours after dosing, prior to the subsequent dose)?
Answer: Its value is “recovered”.

Question: And the “20S proteasome activity in white blood cells of the moribund animal” value (20S proteasome [1]; high-dose male at sacrifice on Day 26 after 8 doses)?
Answer: The value was “low residual 20S proteasome activity”.

Question: What about the “βt (activation factor determined upon titration of the proteasome inhibitor)” value (20S proteasome [2]) of the same compound?
Answer: Its value is 1.28.

Question: What about the “βt (activation factor of tryptic activity)” value ([3]; fit of vc/vt, purified 20S proteasome from rabbit reticulocytes) of the same compound?
Answer: Its value is 1.38±0.05.

Question: What about the “effect on tryptic activity” value ([3]; increasing concentrations of 1, same concentration range) of the same compound?
Answer: The value was “activation; also recorded: activated”.

Question: And the “20S proteasome activity in rat liver” value (20S proteasome [4]; 1.0 h after single IV 0.03, 0.1 and 0.3 mg/kg)?
Answer: Its value is “significant (p<0.05) dose-related decrease”.

Question: And the “20S proteasome activity in rat liver” value (20S proteasome [4]; 24 h after single IV, high dose group 0.3 mg/kg)?
Answer: Its value is “smaller, but remained significant (p<0.05) in the high dose group”.

Question: And the “20S proteasome activity in rat liver” value (20S proteasome [4]; 48 h after single IV)?
Answer: The value was “returned to baseline”.

Question: What about the “penetration of 1 into brain tissue” value (20S proteasome [4]; [12]) of the same compound?
Answer: Its value is “lack of penetration”.

Question: What about the “20S proteasome inhibition in brain tissue” value (20S proteasome [4]; single IV 0.03, 0.1 and 0.3 mg/kg, 1.0, 24 and 48 h) of the same compound?
Answer: Its value is “No 20S proteasome inhibition was observed”.

Question: What about the “βt (activation factor of tryptic activity)” value [5] of the same compound?
Answer: The value was 1.1±0.2.

Question: And the “20S proteasome activity in white blood cells” value (20S proteasome [6]; 1.0 h after single IV 0.03 to 0.3 mg/kg)?
Answer: The value was “significant (p<0.05) dose-related decrease”.

Question: And the “20S proteasome activity in white blood cells” value (20S proteasome [6]; 24 h after single IV 0.03 to 0.3 mg/kg)?
Answer: Its value is “smaller, but remained significant (p<0.05) in the higher dose groups”.

Question: And the “20S proteasome activity in white blood cells” value (20S proteasome [6]; 48 h after single IV 0.03 to 0.3 mg/kg)?
Answer: Its value is “no longer significantly decreased”.

Question: What about the “inhibition of 20S proteasome activity in peripheral white blood cells (overall)” value (20S proteasome [6]; single intravenous injection, rats) of the same compound?
Answer: The value was “dose-dependent and reversible inhibition”.

Question: What about the “20S proteasome activity in peripheral white blood cells, colon, liver, muscle (gastrocnemius), and prostate” value (20S proteasome [7]; [13]) of the same compound?
Answer: Its value is “Significant (p<0.05) dose-related decreases”.

Question: And the “20S proteasome inhibition in brain and testes” value (20S proteasome [7]; [13])?
Answer: Its value is “No 20S proteasome inhibition was observed”.

Question: And the “penetration of 1 into brain and testes” value (20S proteasome [7]; [12])?
Answer: Its value is “lack of 1 penetration”.

Question: And the “20S proteasome activity in white blood cells” value (20S proteasome [8]; 1.0 h after single IV 0.1 to 3.0 mg/kg, all dose groups)?
Answer: Its value is “significant (p<0.05) dose-related decrease”.

Question: What about the “20S proteasome activity in white blood cells” value (20S proteasome [8]; 24 h after single IV 0.1 to 3.0 mg/kg) of the same compound?
Answer: Its value is “starts to recover”.

Question: And the “inhibition of 20S proteasome activity in peripheral white blood cells (overall)” value (20S proteasome [8]; single intravenous injection, mice)?
Answer: The value was “dose-dependent and reversible inhibition”.

Question: What about the “βc (factor for chymotryptic site activity of E I complex; 0 = total inhibition)” value [9] of the same compound?
Answer: The value was 0.

Question: What about the “effect on chymotryptic activity” value ([9]; increasing concentrations of 1) of the same compound?
Answer: Its value is “fully inhibits; also recorded: fully inhibitable”.

Question: What about the “clearance from the blood” value [10] of the same compound?
Answer: The value was “rapidly cleared from the blood”.

Question: What about the “time to peak concentration (Tmax)” value ([10]; 0.3 mg/kg) of the same compound?
Answer: Its value is no more than 10 min.

Question: What about the “extent of 20S proteasome inhibition compared with single dose” value (20S proteasome [11]; 24 h after 7 daily IV doses) of the same compound?
Answer: Its value is “greater than that observed 24 h after administration of a single intravenous dose”.

Question: What about the “20S proteasome activity in white blood cells” value (20S proteasome [11]; [14]) of the same compound?
Answer: Its value is “significant dose-related decrease”.

Question: And the “dose groups with significant (p<0.05) decrease in 20S proteasome activity” value (20S proteasome [11]; [14])?
Answer: Its value is no less than 0.2 mg/kg.

Question: What about the “20S proteasome activity in white blood cells” value (20S proteasome [11]; [15]) of the same compound?
Answer: Its value is “dose-related decrease”.

Question: And the “doses with significant inhibition of 20S proteasome activity” value (20S proteasome [11]; [15])?
Answer: The value was no less than 0.05 mg/kg.

Question: And the “20S proteasome activity in white blood cells” value (20S proteasome [11]; [16])?
Answer: The value was “significant (p<0.05) dose-related decrease”.

Question: And the “dose groups with significant (p<0.05) decrease in 20S proteasome activity” value (20S proteasome [11]; [16])?
Answer: The value was no less than 0.1 mg/kg.

Question: And the “20S proteasome activity in white blood cells” value (20S proteasome [11]; twice weekly IV for 2 weeks (4 doses, 0.01 to 0.35 mg/kg/day), male Sprague-Dawley rats, 1.0 h after last dose)?
Answer: The value was “dose-related decrease”.

Question: And the “dose groups with significant (p<0.05) decrease in 20S proteasome activity” value (20S proteasome [11]; twice weekly IV for 2 weeks, male Sprague-Dawley rats, 1.0 h after last dose)?
Answer: Its value is no less than 0.03 mg/kg.

Source: patent publication US6613541B1, “Method for monitoring proteasome inhibitor drug action” (Millennium Pharmaceuticals, Inc., priority 1998, dated 2003)
